Target: Glutamate receptor ionotropic, NMDA 1 (Rattus norvegicus) (UniProt P35439)
Experiment: In vitro affinity of compound for the glycinergic site associated with NMDA receptor was assessed by inhibition of the binding of [3H]glycine

| pKi | Compound |
| --- | --- |
| 7.5 | O=C(O)c1[nH]c2cc(Cl)cc(Cl)c2c1/C=C1\CCN(c2ccccc2)C1=O |
| 7.3 | O=C(O)c1[nH]c2cc(Cl)cc(Cl)c2c1/C=C1\CCCN(c2ccccc2)C1=O |

Reference: ChEMBL document CHEMBL1131389, “Unusual synthesis of new glycine antagonists via sequential aldol condensation-lactonization-elimination reaction” (Bioorg Med Chem Lett, 1998)
